Results: US20250333397A1 (REMIX THERAPEUTICS INC., priority 2021, published 2025)
Where two headings read alike, the source gives them in different places.

What was measured:
Assay type in all cases: cell-based, human
HTT mRNA = test: RT-qPCR splicing assay, HTT canonical (CJ) and alternative (AJ) junction mRNA; conditions: for AC50: read-out: HTT AJ (AC50, increase in AJ mRNA)
In short: (§1)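 Cells: A673 (DMEM/10% FBS, plated 24 h before) or K562 (IMDM/10% FBS). Dosing: 11-pt 3-fold series, 10 uM top final, ≤0.25% DMSO, 24 h, 37 °C/5% CO2. Readout: RT-qPCR of CJ and AJ junctions, housekeeper-normalized, RQ = 2^(-ΔΔCt) vs DMSO.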

MYB mRNA = test: RT-qPCR splicing assay, MYB canonical (CJ) and alternative (AJ) junction mRNA; conditions: for AC50: read-out: MYB AJ (AC50, increase in AJ mRNA)
In short: as §1

SMN2 mRNA = test: RT-qPCR splicing assay panel, SMN2 canonical junction (CJ) mRNA
In short: as §1

Target C mRNA = test: RT-qPCR splicing assay panel, Target C canonical junction (CJ) mRNA
In short: as §1

[1] = Homo sapiens, canonical junction (CJ) mRNA, RT-qPCR panel, Table 4A, read-out: HTT, decrease in CJ mRNA levels, IC50
[2] = Homo sapiens, canonical junction (CJ) mRNA, RT-qPCR panel, Table 4A, read-out: MYB, decrease in CJ mRNA levels, IC50
[3] = Homo sapiens, canonical junction (CJ) mRNA, RT-qPCR panel, Table 4A, read-out: SMN2, decrease in CJ mRNA levels, IC50
[4] = Homo sapiens, canonical junction (CJ) mRNA, RT-qPCR panel, Table 4A, read-out: Target C, decrease in CJ mRNA levels, IC50
[5] = Homo sapiens, 24 h, Table 3A, A673 or K562 cells, 24 h treatment
[6] = Homo sapiens, 24 h, Table 3A, A673 or K562 cells, 24 h treatment, read-out: HTT CJ (IC50, decrease in CJ mRNA)
[7] = Homo sapiens, 24 h, Table 3A, A673 or K562 cells, 24 h treatment, read-out: MYB CJ (IC50, decrease in CJ mRNA)
[8] = Table 3A, A673 or K562 cells, 24 h treatment
[9] = Table 3A, A673 or K562 cells, 24 h treatment, read-out: HTT CJ (IC50, decrease in CJ mRNA)
[10] = canonical junction (CJ) mRNA, RT-qPCR panel, Table 4A, read-out: HTT, decrease in CJ mRNA levels, IC50
[11] = Table 3A, A673 or K562 cells, 24 h treatment, read-out: MYB CJ (IC50, decrease in CJ mRNA)
[12] = canonical junction (CJ) mRNA, RT-qPCR panel, Table 4A, read-out: MYB, decrease in CJ mRNA levels, IC50
[13] = canonical junction (CJ) mRNA, RT-qPCR panel, Table 4A, read-out: SMN2, decrease in CJ mRNA levels, IC50
[14] = canonical junction (CJ) mRNA, RT-qPCR panel, Table 4A, read-out: Target C, decrease in CJ mRNA levels, IC50
[15] = Homo sapiens, 24 h, Table 3B, A673 or K562 cells, 24 h treatment

Row | IC50 (HTT mRNA; [1]) [nM] | IC50 (MYB mRNA; [2]) [nM] | IC50 (SMN2 mRNA; [3]) [nM] | IC50 (Target C mRNA; [4]) [nM] | IC50 (HTT mRNA; [6]) [nM] | IC50 (MYB mRNA; [7]) [nM] | SMILES | AC50 (HTT mRNA; [5]) [nM] | AC50 (MYB mRNA; [5]) [nM] | further results
1 | > 10000 | > 10000 | > 10000 | > 10000 |  |  | Oc1cc(-c2cc(OC(F)(F)F)ncn2)ccc1-c1ccc(N2CCC(NCC3CC3)C2)nn1 (stereo not shown) [Compound 455] |  |  | 
2 | < 100 | 100 to 1000 | < 100 | < 100 | < 100 | 100 to 1000 | Cc1ncc(-c2ccc(-c3ccc(N4CC[C@](C)(NC5CCC5)C4)nn3)c(O)c2)s1 [Compound 357] | < 100 | 100 to 1000 | 
3 | < 100 | 100 to 1000 | < 100 | 100 to 1000 | < 100 | 100 to 1000 | COc1cc(-c2ccc(-c3ccc(N4CCC(N[C@H]5C[C@@H](OC)C5)C4)nn3)c(O)c2)cnn1 (stereo partly shown) [Compound 404, 5-(6-methoxypyridazin-4-yl)-2-[6-(3-{[(1s,3s)-3-methoxycyclobutyl]amino}pyrrolidin-1-yl)pyridazin-3-yl]phenol] | 100 to 1000 | 1000 to 10000 | 
4 | < 100 | 100 to 1000 | < 100 | < 100 | < 100 | 100 to 1000 | Cc1ncc(-c2ccc(-c3ccc(OC4CC(C)(C)NC(C)(C)C4)nn3)c(O)c2)s1 [Compound 329] | < 100 | 100 to 1000 | 
5 | < 100 | 100 to 1000 | < 100 | < 100 | < 100 | 100 to 1000 | COc1cc(-c2ccc(-c3ccc(N4CC[C@](C)(NC5CCC5)C4)nn3)c(O)c2)ncn1 [Compound 365, 2-{6-[(3S)-3-(cyclobutylamino)-3-methylpyrrolidin-1-yl]pyridazin-3-yl}-5-(6-methoxypyrimidin-4-yl)phenol] | < 100 | 100 to 1000 | 
6 | < 100 | 100 to 1000 | < 100 | 100 to 1000 | < 100 | 100 to 1000 | COc1cc(-c2ccc(-c3ccc(N4CC[C@@H](NC5CC5)C4)nn3)c(O)c2)cnn1 [Compound 216, 2-{6-[(3R)-3-(cyclopropylamino)pyrrolidin-1-yl]pyridazin-3-yl}-5-(6-methoxypyridazin-4-yl)phenol] | 100 to 1000 | 100 to 1000 | 
7 | 100 to 1000 | > 10000 | 100 to 1000 | > 10000 | 100 to 1000 | > 10000 | Cc1ncc(-c2ccc(-c3ccc(N4CC[C@H](N(C)C5CCC5)C4)nn3)c(O)c2)s1 [Compound 268] | 1000 to 10000 | > 10000 | 
8 |  |  |  |  |  |  | CN([C@@H]1CCN(c2ccc(-c3ccc(-c4cn[nH]c4)cc3O)nn2)C1)C(C)(C)C [Compound 446] |  |  | AC50 (HTT mRNA; [8]): < 100 nM; IC50 (HTT mRNA; [9]): < 100 nM; IC50 (HTT mRNA; [10]): < 100 nM; AC50 (MYB mRNA; [8]): < 100 nM; IC50 (MYB mRNA; [11]): < 100 nM; IC50 (MYB mRNA; [12]): < 100 nM; IC50 (SMN2 mRNA; [13]): < 100 nM; IC50 (Target C mRNA; [14]): < 100 nM
9 | < 100 | 100 to 1000 | < 100 | < 100 | < 100 | 100 to 1000 | CN(C1CCC1)[C@H]1CCN(c2ccc(-c3cc(F)c(-c4cn[nH]c4)cc3O)nn2)C1 [Compound 295] | < 100 | 100 to 1000 | 
10 |  |  |  |  |  |  | COc1cc(-c2ccc(-c3ccc(N4CC[C@H](NC5(C)CC5)C4)nn3)c(O)c2)cnn1 [Compound 265, 5-(6-methoxypyridazin-4-yl)-2-{6-[(3S)-3-[(1-methylcyclopropyl)amino]pyrrolidin-1-yl]pyridazin-3-yl}phenol] |  |  | AC50 (HTT mRNA; [8]): < 100 nM; IC50 (HTT mRNA; [9]): < 100 nM; IC50 (HTT mRNA; [10]): < 100 nM; AC50 (MYB mRNA; [8]): < 100 nM; IC50 (MYB mRNA; [11]): < 100 nM; IC50 (MYB mRNA; [12]): < 100 nM; IC50 (SMN2 mRNA; [13]): < 100 nM; IC50 (Target C mRNA; [14]): < 100 nM
11 |  |  |  |  |  |  | Cc1nc2cc(O)c(-c3cnc(N4CC[C@H](NC(C)(C)C)C4)nn3)cc2o1 [Compound 809] |  |  | AC50 (HTT mRNA; [15]): 1000 to 10000 nM; IC50 (HTT mRNA; Homo sapiens, 24 h, Table 3B, A673 or K562 cells, 24 h treatment, read-out: HTT CJ (IC50, decrease in CJ mRNA)): < 100 nM; IC50 (HTT mRNA; Homo sapiens, Table 4B, gene panel, read-out: HTT (IC50, decrease in CJ mRNA levels)): < 100 nM; AC50 (MYB mRNA; [15]): 1000 to 10000 nM; IC50 (MYB mRNA; Homo sapiens, 24 h, Table 3B, A673 or K562 cells, 24 h treatment, read-out: MYB CJ (IC50, decrease in CJ mRNA)): 1000 to 10000 nM; IC50 (MYB mRNA; Homo sapiens, Table 4B, gene panel, read-out: MYB (IC50, decrease in CJ mRNA levels)): 1000 to 10000 nM; IC50 (SMN2 mRNA; Homo sapiens, Table 4B, gene panel, read-out: SMN2 (IC50, decrease in CJ mRNA levels)): 100 to 1000 nM; IC50 (Target C mRNA; Homo sapiens, Table 4B, gene panel, read-out: Target C (IC50, decrease in CJ mRNA levels)): 1000 to 10000 nM
12 | 1000 to 10000 | 1000 to 10000 | 1000 to 10000 | > 10000 | 1000 to 10000 | 1000 to 10000 | CCc1cc(-c2ccc(-c3ccc(N4CC[C@@H](NC5CCC5)C4)nn3)c(O)c2)cnn1 [Compound 277, 2-{6-[(3R)-3-(cyclobutylamino)pyrrolidin-1-yl]pyridazin-3-yl}-5-(6-ethylpyridazin-4-yl)phenol] | > 10000 | > 10000 | 
13 | 1000 to 10000 | > 10000 | 1000 to 10000 | > 10000 | 1000 to 10000 | > 10000 | COc1cc(-c2ccc(-c3ccc(N4CCC(NCC5CC5)C4)nn3)c(O)c2)nc(C)n1 (stereo not shown) [Compound 371] | 1000 to 10000 | > 10000 | 
14 | < 100 | 100 to 1000 | < 100 | 100 to 1000 | < 100 | 100 to 1000 | COc1cc(-c2ccc(-c3ccc(N4CC[C@H](NC5(C)CCC5)C4)nn3)c(O)c2)ncn1 [Compound 384, 5-(6-methoxypyrimidin-4-yl)-2-{6-[(3S)-3-[(1-methylcyclobutyl)amino]pyrrolidin-1-yl]pyridazin-3-yl}phenol] | < 100 | 100 to 1000 | 
15 | 100 to 1000 | 100 to 1000 | < 100 | 100 to 1000 | 100 to 1000 | 100 to 1000 | COc1cc(-c2ccc(-c3ccc(N4CC(F)[C@@H](NC(C)(C)C)C4)nn3)c(O)c2)cnn1 (stereo in doubt) [Compound 217, 2-{6-[(3S,4R)-3-(tert-butylamino)-4-fluoropyrrolidin-1-yl]pyridazin-3-yl}-5-(6-methoxypyridazin-4-yl)phenol] | 100 to 1000 | 1000 to 10000 | 
16 | 1000 to 10000 | 1000 to 10000 | 1000 to 10000 | 1000 to 10000 | 1000 to 10000 | 1000 to 10000 | Cc1ccc(-c2ccc(-c3ccc(N4CCC(NC5CCC5)C4)nn3)c(O)c2)o1 (stereo not shown) [Compound 325, 2-{6-[3-(cyclobutylamino)pyrrolidin-1-yl]pyridazin-3-yl}-5-(5-methylfuran-2-yl)phenol] | 1000 to 10000 | 1000 to 10000 | 
17 | 100 to 1000 | 100 to 1000 | 100 to 1000 | 100 to 1000 | 100 to 1000 | 100 to 1000 | COc1cc(-c2cc(O)c(-c3ccc(N4CC[C@H](NC(C)(C)C)C4)nn3)cc2F)ncn1 [Compound 397] | 100 to 1000 | 1000 to 10000 | 
18 | 1000 to 10000 | > 10000 | 1000 to 10000 | > 10000 | 1000 to 10000 | > 10000 | Oc1cc(-n2cnnc2)c(F)cc1-c1ccc(N2CCC(NC3CCC3)C2)nn1 (stereo not shown) [Compound 315] | 1000 to 10000 | > 10000 | 
19 | 100 to 1000 | 100 to 1000 | < 100 | 1000 to 10000 | 100 to 1000 | 100 to 1000 | O=c1cc(-c2cc(O)c(-c3ccc(N4CC[C@H](NC5CCC5)C4)nn3)cc2F)cc[nH]1 [Compound 221] | 100 to 1000 | 1000 to 10000 | 
